This is an account of results in article PMC7352342, “Inhibition of Patched Drug Efflux Increases Vemurafenib Effectiveness against Resistant Braf^V600E Melanoma” (Cancers, 2020).

Series [1] deals with A375 BRAF^V600E melanoma cells. Nature of the series: Melanoma xenograft study in mice. It is filed as in vivo. As to conditions: Figure S6.
Experimental: Forty-eight male athymic Nu/NU NMRI mice (4–5 weeks) were purchased from Charles River and housed under pathogen-free conditions. A 200 µL aliquot of 3 Millions A375 BRAF^V600E melanoma cells were injected subcutaneously per mouse. […] Animals were monitored daily for symptoms of disease (weight loss >20%, ruffled coat, hunched back, weakness, reduced motility) and tumor sizes were measured every 3 to 4 days. […]
A part of each tumor was cut in 8 µm thick tissue sections using a microtome-cryostat for quantification of the number of apoptotic tumor cells and of proliferative cells performed using the colorimetric DeadEND TUNEL System (Promega, Mannheim, Germany) and immunofluorescence analysis of Ki67 (BD pharmigen 556003), respectively. OCT was removed from the remainder of each tumor, and tumors were crushed in 50 mM Tris-HCl pH 6.8, 10% glycerol, and 2% SDS), heated at 95 °C, and sonicated for Western blot analyses as well as vemurafenib and cholesterol quantification. Protein concentration in each homogenate was evaluated using a Bio-Rad protein assay based on the Bradford dye-binding method.
Another series has as its system WM9R cells. Nature of the series: Competition on dxr loading, WM9R cells. As to conditions: 10 µM dxr, 100 µM vemurafenib, 1 h. Type of series: cell-based. As for the experimental part:
(§1) Dxr efflux measurements were carried out as previously described. Cells were seeded on coverslips in 24-well plates and allowed to grow to 80% confluence. Coverslips were incubated at 37 °C and 5% CO2 with 10 μM dxr in physiological buffer (140 mM NaCl, 5 mM KCl, 1 mM CaCl2, 1 mM MgSO4, 5 mM glucose, 20 mM HEPES, pH 7.4). After 2 h, three coverslips were immediately fixed with 4% PFA for the dxr loading control, rapidly washed with PBS and mounted in SlowFade Gold antifade reagent with DAPI (Invitrogen). The other coverslips (triplicated per condition) were incubated with physiological buffer supplemented with DMSO or 10 µM of PAH under gentle shaking at room temperature and protected from light. After 30 min, coverslips were fixed with 4% PFA, washed, and mounted as described above. For competition on dxr loading, A375 and WM9R cells seeded on coverslips were incubated for 1 h at 37 °C and 5% CO2 with 10 μM dxr in physiological buffer in the presence or the absence of 100 µM vemurafenib. Images were acquired with a Zeiss Axioplan 2 fluorescence microscope coupled to a digital charge-coupled device camera using a 40×/1.3 Plan NeoFluar objective and filters for Alexa 594. Dxr fluorescence was quantified using ImageJ software. Sampling of cells was performed randomly. About 100 cells (from three wells) were scored per condition per experiment.

Series [2] deals with A375 cells. Nature of the series: Competition on dxr loading, A375 cells. Type of series: cell-based, human. As to conditions: 10 µM dxr, 100 µM vemurafenib, 1 h. Here is the method:
as §1

In series [3] the test system is MeWo cells. Nature of the series: Cytotoxicity assay (neutral red), MeWo cells. As to conditions: for Dxr-IC50 in the presence of 20 µM compound: MeWo (Figure 3B), same series also tested on A375 (Figure S1); for Dxr-IC50 in the presence of 20 µM compound / effect on dxr cytotoxicity: compound at 20 µM; for effect on dxr cytotoxicity: melanoma cells MeWo (Figure 3B) and A375 (Figure S1), compared to PAH; for IC50: Homo sapiens. It is filed as cell-based, human. As for the experimental part: (§2) Human melanoma cell lines A375 and MeWo were purchased from ATCC, and cultured in DMEM medium supplemented with 10% fetal bovine serum and penicillin/streptomycin (Invitrogen) at 37 °C in a 5% CO2/95% water-saturated air atmosphere. Melanoma cell lines SKMEL 28, SKMEL V3, WM9S, and WM9R were provided by Robert Ballotti (C3M, Nice, France). MeWo-dxrR cells were obtained by adding increasing concentrations of doxorubicin, up to 0.2 µM, in the culture medium over 6 months. These cells were grown in medium supplemented with 0.2 µM dxr. WM9R cells were obtained by adding increasing concentrations of vemurafenib, up to 5 µM, in the culture medium over 6 months. These cells were grown in medium supplemented with 5 µM vemurafenib. HEK cells were grown in 75 mm tissue culture dishes (Falcon, Franklin Lakes, NJ, USA) in Dulbecco’s modified Eagle’s medium (Gibco, Life Technologies, Saint Aubin, France) supplemented with 10% fetal calf serum (Hyclone, Thermo Fisher Scientific GMBH, Ulm, Germany) and 1% penicillin/streptomycin (Gibco, Life Technologies, Saint Aubin, France) in a humidified incubator at 37 °C (5% CO2).
(§3) Cells were seeded in 96-well plates in triplicate and grown in medium to achieve 70 to 80% confluence. Medium was then removed and replaced with 100 µL/well of complete medium containing PAH or DMSO as a control. After 2 h, 100 µL of complete medium containing serial dilutions of dxr, cisplatin or vemurafenib were added. Plates were incubated at 37 °C and 5% CO2. After 24 or 48 h, cells were incubated for 3 h at 37 °C with 100 µL/well neutral red (NR) solution (50 µg/mL in medium) following the manufacturer’s protocol. Measurements were made in microplate readers (Multiskan Go Microplate Spectrophotometer from Thermo Scientific).

For series [4], the system named is A375 cells. As to the kind of experiment: Cytotoxicity assay (neutral red), A375 cells. As to conditions: for IC50: Homo sapiens. Type of series: cell-based, human. As for the experimental part: as §2, §3
For the next series, the system named is MeWo-DxrR cells. As to the kind of experiment: Cytotoxicity assay (neutral red), MeWo cells rendered resistant to dxr. Type of series: cell-based. As to conditions: Homo sapiens, Dxr + DMSO. As for the experimental part:
as §2
Cells were seeded in 96-well plates in triplicate and grown in medium to achieve 70 to 80% confluence. […] Measurements were made in microplate readers (Multiskan Go Microplate Spectrophotometer from Thermo Scientific).

In series [5] the test system is MeWo cells. As to the kind of experiment: Melanoma cells grafted on the chorioallantoic membrane (CAM) of chick eggs. It is filed as in vivo. As to conditions: MeWo tumors on CAM; sPAH 500 µM and/or Dxr 20 µM, 100 µL every two days, 10 days. As for the experimental part: These experiments were performed by the company INOVOTION (La Tronche, France). Fertilized White Leghorn eggs were randomized in 4 groups 9 days after inoculation of 3.10^6 MeWo cells onto the CAM of each egg. At day 10 (E10), tumors began to be detectable and they were treated by adding 100 µL of vehicle (1.2% DMSO in PBS), doxorubicin, and sPAH alone or with doxorubicin. Eggs were treated every two days (E10, E12, E14, E16, E18) for 10 days in the same way. At day 19 (E19), the upper portion of the CAM was removed, washed in PBS, and directly transferred in PFA for 48 h, and the tumors were then carefully cut away from normal CAM tissue.

Counter-ions that a name gives are not always drawn. Like-named read-outs stand apart in the source and are kept apart here.

Regarding `CCCS(=O)(=O)Nc1ccc(F)c(C(=O)c2c[nH]c3ncc(-c4ccc(Cl)cc4)cc23)c1F` [vemurafenib], in series [1], the “ERK phosphorylation in tumor extracts (pERK/ERK, Western blot)” value was “reduced ERK phosphorylation”. Besides, the “amount of dxr in cells in the presence of vemurafenib” value in the series with WM9R cells and in the series with A375 cells [2] was “significantly increased” in each case.

Turning to `COc1cc(C)c(CCC(C)=CCC2=CC(=O)C=CC2=O)c(C)c1C` [Compound 9, Panicein A], in the series on MeWo cells [3], the “Dxr-IC50 in the presence of 20 µM compound” value (from here on “Dxr-IC50 in the presence”) was “could not be determined, owing to greater than 50% viability” and the “effect on dxr cytotoxicity” value was “very weakly increased the cytotoxicity of dxr”.

For the molecule `COc1ccc(O)c(CCC(C)CCc2c(C)cc(OC)c(C)c2C)c1` (centres unmarked) [Compound 11], in the series on MeWo cells [3], the “Dxr-IC50 in the presence” value is “could not be determined, owing to greater than 50% viability”.

Turning to `COc1cc(C)c(CC/C(C)=C/Cc2cc(O)ccc2O)c(C)c1C` [Natural PAH, panicein A hydroquinone], the IC50 (as a rule, the concentration needed to halve the response being measured) in the series on MeWo cells [3] (MeWo, MeWo cells, 2 µM Dxr present, read-out: IC50 of PAH at 2 µM Dxr) came to 6.6 ± 0.8 µM; with A375 cells [4] (A-375, A375 cells, 2 µM Dxr present, read-out: IC50 of PAH at 2 µM Dxr), 12.4 ± 4.9 µM.

For `COc1cc(C)c(CCC(C)CCc2cc(O)ccc2O)c(C)c1C` (centres unmarked) [Compound 13], the “Dxr IC50 in the presence of compound relative to that in the presence of PAH” value is recorded as “approximately 4 fold” in the series on MeWo cells [3] (MeWo, 20 µM compound) and “comparable to that of PAH” with A375 cells [4] (A375, 20 µM compound).

Turning to `COc1cc(C)c(CCC(C)CCC2=CC(=O)C=CC2=O)c(C)c1C` (centres unmarked) [Compound 12], the “Dxr-IC50 in the presence” value with MeWo cells [3] is “could not be determined, owing to greater than 50% viability”.

Take `COc1cccc2c1C(=O)c1c(O)c3c(c(O)c1C2=O)C[C@@](O)(C(=O)CO)C[C@@H]3O[C@H]1C[C@H](N)[C@H](O)[C@H](C)O1` [Dxr, Doxorubicin hydrochloride, reference compound]: the IC50 with MeWo-DxrR cells is 247 ± 49 µM; in the series with MeWo cells [3] (MeWo, Dxr + DMSO, 24 or 48 h, read-out: Dxr IC50), 142 ± 2.2 µM; with A375 cells [4] (A-375, A375, Dxr + DMSO, 24 or 48 h, read-out: Dxr IC50), 41 ± 8.2 µM. In addition, in the series with MeWo cells [5], the “Tumor regression (%) (tumor weight with respect to control)” value is given as 28%.

On to `COc1ccc(O)c(CC=C(C)CCc2c(C)cc(OC)c(C)c2C)c1` [Compound 8], for which, in the series with MeWo cells [3], the “Dxr-IC50 in the presence” value is on record as “could not be determined, owing to greater than 50% viability” and the “effect on dxr cytotoxicity” value is on record as “had no effect on dxr cytotoxicity”.
